Data: patent publication US11912681B2, “Crystalline and salt forms of PPAR agonist compounds” (Mitobridge, Inc., priority 2016, dated 2024)

How the values were obtained:
Type in all cases: physicochemical
[1] = Relative thermodynamic stability of hemisulfate form 1 and form 2 (DSC, competition slurry); conditions: ethyl acetate, two days at 25° C. then eight days at 4° C., slurried with form 1
Protocol: […] Both forms were still present in the slurry, so the experiment was moved to 4° C.
After two days, both forms were still present in the slurry, so the experiment was moved to 4° C.

[2] = Stability of Compound A salts in water (XRPD); conditions: about 20 mg in 1 mL water, overnight, 20° C., 850 rpm
Protocol: The stability of the sulfate, phosphate, L-lysine, and TRIS salts prepared in Example 3 were tested. Approximately 20 mg of each sample was combined with 1 mL of water in microcentrifuge tubes. The samples were allowed to mix overnight on a temperature controlled shaker at 20° C. at 850 rpm. The solids were characterized by XPRD to determine if a solid state form change occurred.

[3] = Thermodynamic stability form (slurry) screen, XRPD; conditions: fifteen days
Protocol: The vials were sealed then placed onto temperature controlled stir plates and stirred for fifteen days at 500 rpm.

[4] = Chemical stability study, degradation and recovery by HPLC
Protocol: (§1) The material was stored at 4° C., 25° C./60% RH, 40° C., and 40° C./75% RH for eight weeks as well as stressed conditions of 70° C. and 70° C./75% RH for two weeks. In addition, photostability was also measured after exposing the material to two cycles of ICH conditions. Degradation and recovery was measured by HPLC. See Table 6 for HPLC results, including percent recovery of solids and relative retention time area percentages, compared against the standard stored at 4° C.

[5] = Physical stability on storage by XRPD; conditions: all storage conditions of the stability study
Protocol: as §1
XRPD was used to check the physical stability.

[6] = Dynamic vapor sorption analysis (hygroscopicity)
Source text: At approximately 90% RH, the material reversibly picks up approximately 3.5% water by weight.

## Cc1cnc(-c2ccc(C(F)(F)F)cc2)n1Cc1ccccc1OCCC[C@@H](C)CC(=O)O [Compound A hemisulfate form 2, (R)-3-methyl-6-(2-((5-methyl-2-(4-(trifluoromethyl)phenyl)-1H-imidazol-1-yl)methyl)phenoxy)hexanoic acid]
[1]
  competition slurry outcome (XRPD): remained a mixture of forms

## Cc1cnc(-c2ccc(C(F)(F)F)cc2)n1Cc1ccccc1OCCC[C@@H](C)CC(=O)O [Compound A hemisulfate form 1, (R)-3-methyl-6-(2-((5-methyl-2-(4-(trifluoromethyl)phenyl)-1H-imidazol-1-yl)methyl)phenoxy)hexanoic acid]
[2]
  solid state form change (XRPD) after mixing in water: no change in the solids
[3]; 2-Methyl-THF, 25° C.
  Results (solid state form after slurry): No change in form
[3]; 2-Propanol, 50° C.
  Results (solid state form after slurry): No change in form
[3]; Acetone, 25° C.
  Results (solid state form after slurry): No change in form
[3]; Acetonitrile, 50° C.
  Results (solid state form after slurry): No change in form
[3]; CPME, 50° C.
  Results (solid state form after slurry): No change in form
[3]; Dichloromethane, 4° C.
  Results (solid state form after slurry): No change in form
[3]; Ethanol, 50° C.
  Results (solid state form after slurry): No change in form
[3]; Ethyl Acetate, 50° C.
  Results (solid state form after slurry): No change in form
[3]; Tetrahydrofuran, 25° C.
  Results (solid state form after slurry): No change in form
[3]; Toluene, 50° C.
  Results (solid state form after slurry): No change in form
[3]; Water, 25° C.
  Results (solid state form after slurry): No change in form
[3]; Water/Acetonitrile (1/3, v/v), 4° C.
  Results (solid state form after slurry): No change in form
[4]; 4° C., 4 wk
  % recovery of solids (HPLC): 101%
[4]; 4° C., 8 wk
  % recovery of solids (HPLC): 100%
[4]; 25° C./60% RH, 4 wk
  % recovery of solids (HPLC): 100%
[4]; 25° C./60% RH, 8 wk
  % recovery of solids (HPLC): 99%
[4]; 40° C., 4 wk
  % recovery of solids (HPLC): 101%
[4]; 40° C., 8 wk
  % recovery of solids (HPLC): 101%
[4]; 40° C./75% RH, 4 wk
  % recovery of solids (HPLC): 101%
[4]; 40° C./75% RH, 8 wk
  % recovery of solids (HPLC): 100%
[4]; 70° C., 2 wk
  % recovery of solids (HPLC): 101%
[4]; 70° C./75% RH, 2 wk
  % recovery of solids (HPLC): 101%
[4]; Control (dark) of photostability
  % recovery of solids (HPLC): 100%
[4]; Photo, two cycles of ICH conditions
  % recovery of solids (HPLC): 98%
[5]
  physical stability, solid state form (XRPD): No changes in solid state form
[6]; 25° C., approximately 90% RH, reversible
  water picked up by weight (DVS): approximately 3.5%
[6]; after DVS at 25° C.
  solid form after DVS (XRPD): remained Compound A hemisulfate form 1
